Consider 4 compounds from the Kinase Knowledgebase extract (Sharma et al. 2016).

In this experiment the target is PIK3CD (Human) (UniProt O00329). Nature of the experiment: Assessment of PIK3CD Kinase Activity.

Where only a bound is given, the exact number is not on record here.

Chain of PIK3CD (Human) (O00329 whole entry, looked up): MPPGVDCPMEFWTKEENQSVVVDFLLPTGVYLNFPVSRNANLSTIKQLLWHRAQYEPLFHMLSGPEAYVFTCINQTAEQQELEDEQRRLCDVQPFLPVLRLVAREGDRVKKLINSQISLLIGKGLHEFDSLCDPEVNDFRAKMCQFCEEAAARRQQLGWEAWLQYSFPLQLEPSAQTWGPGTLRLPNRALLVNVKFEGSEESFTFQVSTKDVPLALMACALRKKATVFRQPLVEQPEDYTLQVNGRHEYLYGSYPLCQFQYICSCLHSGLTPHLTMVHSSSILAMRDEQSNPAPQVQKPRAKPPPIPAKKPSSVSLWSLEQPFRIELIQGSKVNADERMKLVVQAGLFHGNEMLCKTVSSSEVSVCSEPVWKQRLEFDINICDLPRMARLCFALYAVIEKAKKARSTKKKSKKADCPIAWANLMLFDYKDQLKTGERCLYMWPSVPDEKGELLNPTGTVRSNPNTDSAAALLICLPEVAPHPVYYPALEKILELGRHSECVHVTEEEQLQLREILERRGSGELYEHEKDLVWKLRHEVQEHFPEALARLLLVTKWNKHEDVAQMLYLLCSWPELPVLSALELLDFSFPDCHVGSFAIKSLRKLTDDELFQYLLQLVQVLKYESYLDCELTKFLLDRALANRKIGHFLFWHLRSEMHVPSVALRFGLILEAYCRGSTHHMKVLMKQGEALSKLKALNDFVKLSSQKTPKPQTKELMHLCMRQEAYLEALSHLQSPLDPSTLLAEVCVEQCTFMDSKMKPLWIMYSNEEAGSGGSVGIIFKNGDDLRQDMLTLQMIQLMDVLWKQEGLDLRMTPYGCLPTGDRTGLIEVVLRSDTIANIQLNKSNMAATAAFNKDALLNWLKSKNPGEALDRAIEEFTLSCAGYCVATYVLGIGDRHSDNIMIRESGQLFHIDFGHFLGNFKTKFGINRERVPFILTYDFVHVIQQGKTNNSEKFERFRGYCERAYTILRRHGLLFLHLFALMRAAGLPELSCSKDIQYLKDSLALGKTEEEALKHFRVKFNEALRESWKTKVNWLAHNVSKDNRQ

The compound `COC[C@H]1CCCN1c1c(C(C)Nc2ncnc3[nH]cnc23)cc(Cl)c2cccnc12` (some centres undefined) came in with an IC50 of 100 to 250 nM. For the compound `CC(Nc1ncnc2[nH]cnc12)c1cc(Cl)c2cccnc2c1N1CCN(C(=O)C2CC2)CC1` (centres undefined), the IC50 is < 50 nM.

Take `CC(Nc1ncnc2[nH]cnc12)c1cc(Cl)c2ccccc2c1N1CCC(O)CC1` (centres undefined): the IC50 was < 50 nM. Under `CC(Nc1ncnc2[nH]cnc12)c1cc(Cl)c2cccnc2c1N1CCC(F)CC1` (centres undefined) stands 100 to 250 nM.

As usually defined, the IC50 is the midpoint of a concentration-inhibition curve. A high value points to a need for much substance.
